# Entries after “also recorded” stand apart in the source; their conditions may differ.
# Legend:
# D2 receptor = molecular target: T1, D2 receptor (Homo sapiens, UniProt P14416); assay: D2 receptor affinity assay (radioligand competition, 3H-7-OH-DPAT); type: binding; conditions: cloned D2 receptor expressed in HEK293 cell line; 3H-7-OH-DPAT 1 nM
# T1 construct: expressed in transfected cells; host or cells: HEK293
# Protocol: (§1) Bioactivity Test • I. D2 receptor affinity assay: The affinity of the compound to D2 receptor was determined by radioligand competition assay, and the cloned D2 receptor was expressed in HEK293 cell line. • II. D2 receptor function assay: The ability of the compound to antagonize the D2 receptor was determined using a calcium mobilization assay (FLIPR). • III. DAT receptor function assay: The ability of the compound to inhibit DAT was determined by neurotransmitter transporter absorption assay.
# • Experimental buffer: 50 mM Tris-HCl, pH 7.4, 5 mM MgCl2 • Washing buffer: 50 mM Tris-HCl pH 7.4, stored at 4° C. ready for use.
# • The compound and positive control 7-OH-DPAT were serially diluted with DMSO, with the initial concentration of 2 mM and 4 times serial dilution, a total of 10 concentrations. 1 μL was transferred to the designated position of the 96-well plate. • 1 μL droperidol (final concentration 10 μM) was added to the positive control well. 1 μL DMSO was added to the negative control well.
# • Receptor cell membrane was diluted to 10 μg/well with corresponding experimental buffer, with 100 μL cell membrane/well.
# • 3H-7-OH-DPAT was diluted to 2 nM with corresponding experimental buffer, and the final concentration was 1 nM.
# • After 100 μL of cell membrane and isotope were added, respectively, the reaction plate of the D2 receptor was incubated at room temperature for 1 hour. The GF/C filter plate was soaked in 0.3% PEI solution for more than half an hour. After the reaction was completed, the cell membrane was collected on the GF/C filter plate using the […], washed 4 times with cold washing buffer, and then dried in an oven at 50° C. for 1 hour. The dried GF/C filter plate was sealed at the bottom, 50 μL of scintillation fluid was added to each well and the well was sealed. Reads were obtained by MicroBeta and the data was analyzed using GraphPad Prism 5.0.
# Ki=IC50/(1+isotope concentration/Kd)
# DAT = DAT (Homo sapiens, UniProt Q01959); assay: DAT transporter assay (neurotransmitter transporter absorption assay); type: cell-based
# DAT, sequence (Q01959 whole entry, species assumed): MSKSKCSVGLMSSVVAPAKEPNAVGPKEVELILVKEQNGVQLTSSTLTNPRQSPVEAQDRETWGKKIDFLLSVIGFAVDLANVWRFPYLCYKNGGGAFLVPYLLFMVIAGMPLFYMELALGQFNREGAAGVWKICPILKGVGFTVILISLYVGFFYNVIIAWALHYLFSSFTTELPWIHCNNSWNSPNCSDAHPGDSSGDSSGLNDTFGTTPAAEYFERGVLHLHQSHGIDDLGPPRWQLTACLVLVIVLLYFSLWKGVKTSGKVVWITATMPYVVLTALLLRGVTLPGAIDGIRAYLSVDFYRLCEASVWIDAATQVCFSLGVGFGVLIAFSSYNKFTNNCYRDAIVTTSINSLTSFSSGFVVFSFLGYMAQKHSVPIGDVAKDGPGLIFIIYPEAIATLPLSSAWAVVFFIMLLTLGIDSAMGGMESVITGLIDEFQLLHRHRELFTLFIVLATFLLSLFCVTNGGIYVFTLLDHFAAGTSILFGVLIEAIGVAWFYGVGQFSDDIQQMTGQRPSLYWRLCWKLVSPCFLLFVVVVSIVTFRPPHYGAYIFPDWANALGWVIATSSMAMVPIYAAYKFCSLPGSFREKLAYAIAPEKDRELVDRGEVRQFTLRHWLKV
# Protocol: as §1
# • HBSS1×, REPES 20 mM, BSA 0.1%.
# • Lyophilized fluorescent dye 1 vial, Assay buffer 10 mL.
# • BTCP—hydrochloride (Sigma)
# • i) The medium was preheated in 37° C. water bath in advance for more than 30 minutes for later use. • j) The preheated medium was taken out, disinfected with 75% alcohol, and put into a biosafety cabinet. • k) The cultured cells were taken out from the […], and the medium was removed by a vacuum pump. 1× DPBS was added, incubated for a moment, and then removed by a vacuum pump. Appropriate amount of 0.05% trypsin-EDTA was added for cell digestion. The digestion was terminated by 10% FBS medium, and the cells were pipetted and dispersed. • l) The dispersed cells were transferred into a 50 mL centrifuge tube with a pipette.
# • a) The reference compound was diluted in a ratio of 1:3 to 10 concentration gradients with the detection buffer containing 0.1% BSA, with the highest concentration being 2 μM. The compound to be tested was diluted to 20 uM with the detection buffer containing 0.1% BSA. • b) A centrifuge (750 rpm, 15 s) was used to spin off the culture solution in the cell culture plate, and the compound solution in step 1 was transferred to the cell culture plate (25 uL/well). • HC (High control): 25 μL of 0.1% BSA detection buffer containing 0.2% DMSO. • LC (Low control): 25 μL of solution containing 2 μM positive antagonist. • c) After centrifugation at 300 rpm for 15 seconds, the plate was incubated at 37° C. for 30 minutes. After the incubation with the compound was completed, a dye solution (25 μL/well) was added and incubated at 37° C. for 30 minutes.
# Inhibitor % activity=100−(signal value per well−average value for LC well)/(average value for H well−average value for LC well)*100%.
# [1] = tested on: Amphetamine-induced high locomotor activity in mice; assay: Amphetamine-induced high locomotor activity (LMA) in mice; type: in vivo; set-up: Distance resulting from the activity, First 30 min / Distance resulting from the activity, Last 30 min: unit not given here; conditions: for Effect on Amphetamine-induced high locomotor activity compared with olanzapine (in words) / Inhibition of Amphetamine-induced high locomotor activity (in words): 5, 10, 20 mg/kg; for Effect on Amphetamine-induced high locomotor activity compared with olanzapine (in words): p.o. vs olanzapine 5.0 mg/kg p.o.; for Inhibition of Amphetamine-induced high locomotor activity (in words): p.o., P<0.05-0.01; for Distance resulting from the activity, First 30 min / Distance resulting from the activity, Last 30 min: Amphetamine 1.0 mg/kg s.c., male ICR mice
# Protocol: The test compound MDC was a milky white powder and stored in a shade and cool place (formulated with 1% DMSO before use). […] Amphetamine, purchased from Sigma-Aldrich, was a white powder (formulated with normal saline before use). 1% DMSO was formulated by diluting pure DMSO (purity>99.5, purchased from Sigma) with normal saline.
# Male ICR mice having weight 22±2 g were kept at 8 mice/cage with 12/12 hours light/dark cycle, temperature 23° C.±1° C., humidity 50% to 60%, free to eat and drink water.
# The administration volume was 0.1 ml/10 g body weight; Amphetamine was freshly formulated with normal saline at a dose of 1.0 mg/kg and administered subcutaneously.
# After one week of acclimation, mice were randomly divided into 6 groups according to their body weight: negative control group, model group, positive control group, and low dose group, medium dose group and high dose group for the test compound. 8-10 animals/group.
# Group 1: Negative control group: Normal saline (s.c.)+1% DMSO (10.0 ml/kg, p.o.);
# Group 2: Model group: Amphetamine (1.0 mg/kg, s.c.)+1% DMSO (10.0 ml/kg, p.o.);
# Group 4: MDC low dose group: Amphetamine (1.0 mg/kg, s.c.)+MDC (5 mg/kg, p.o.);
# Group 5: MDC medium dose group: Amphetamine (1.0 mg/kg, s.c.)+MDC (10 mg/kg, p.o.);
# Group 6: MDC high dose group: Amphetamine (1.0 mg/kg, s.c.)+MDC (20 mg/kg, p.o.).
# After administration, the animals were immediately placed in a locomotor activity box and recorded by Shanghai Jiliang animal video analysis system for 1 hour.
# After the experiment, the activity of the animals within 1 hour was analyzed using the trajectory analysis software of Shanghai Jiliang animal video analysis system to obtain the total distance resulting from the activity.
# [2] = 5 mg/kg p.o. (low dose group; olanzapine positive control)
# [3] = 10 mg/kg p.o. (medium dose group)
# [4] = 20 mg/kg p.o. (high dose group)
# T1 sequence (P14416 whole entry): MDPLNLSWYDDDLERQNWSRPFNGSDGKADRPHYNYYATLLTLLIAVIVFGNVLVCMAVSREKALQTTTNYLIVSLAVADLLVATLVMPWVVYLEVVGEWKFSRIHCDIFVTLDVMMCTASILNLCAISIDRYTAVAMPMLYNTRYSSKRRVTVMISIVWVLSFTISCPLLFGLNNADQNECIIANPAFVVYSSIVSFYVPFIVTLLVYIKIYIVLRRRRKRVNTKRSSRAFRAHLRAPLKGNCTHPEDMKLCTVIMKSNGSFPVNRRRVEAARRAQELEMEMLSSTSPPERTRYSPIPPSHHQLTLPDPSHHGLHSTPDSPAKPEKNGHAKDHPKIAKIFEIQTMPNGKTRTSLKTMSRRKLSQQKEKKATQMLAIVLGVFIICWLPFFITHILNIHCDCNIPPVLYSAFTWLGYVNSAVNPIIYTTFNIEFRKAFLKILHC
structure (smiles),measurement,setting,value
"Oc1cccc(C2CCN(Cc3c[nH]c4ccccc34)C2)c1 (racemic) [MDC-161502-002, 1-(indole-3-methyl)-3-(3-hydroxyphenyl)pyrrolidine]",IC50,D2 receptor,0.014 µM
same,IC50,DAT,0.181 µM
same,Effect on Amphetamine-induced high locomotor activity compared with olanzapine (in words),[1],equivalent to olanzapine; also recorded: better than olanzapine
same,Inhibition of Amphetamine-induced high locomotor activity (in words),[1],significantly inhibited
same,"Distance resulting from the activity, First 30 min",[1]; [2],284824
same,"Distance resulting from the activity, Last 30 min",[1]; [2],257329
same,"Distance resulting from the activity, First 30 min",[1]; [3],250678
same,"Distance resulting from the activity, Last 30 min",[1]; [3],231296
same,"Distance resulting from the activity, First 30 min",[1]; [4],180127
same,"Distance resulting from the activity, Last 30 min",[1]; [4],148036
"O=S(=O)(Nc1cccc(C2CCN(Cc3c[nH]c4ccccc34)C2)c1)c1cccs1 (stereo not shown) [MDC-161502-008, 1-(indole-3-methyl)-3-[3-(2-thiophenesulfonamido)phenyl]pyrrolidine]",IC50,D2 receptor,0.12 µM
same,IC50,DAT,0.936 µM
same,Effect on Amphetamine-induced high locomotor activity compared with olanzapine (in words),[1],equivalent to olanzapine
same,Inhibition of Amphetamine-induced high locomotor activity (in words),[1],significantly inhibited
same,"Distance resulting from the activity, First 30 min",[1]; [2],287643
same,"Distance resulting from the activity, Last 30 min",[1]; [2],264309
same,"Distance resulting from the activity, First 30 min",[1]; [3],253945
same,"Distance resulting from the activity, Last 30 min",[1]; [3],220678
same,"Distance resulting from the activity, First 30 min",[1]; [4],209673
same,"Distance resulting from the activity, Last 30 min",[1]; [4],219876
"O=S(=O)(CC(F)(F)F)Nc1cccc(C2CCN(Cc3c[nH]c4ccccc34)C2)c1 (stereo not shown) [MDC-161502-006, 1-(indole-3-methyl)-3-(3-trifluoroethanesulfonamidophenyl)pyrrolidine]",IC50,D2 receptor,0.639 µM
same,IC50,DAT,0.762 µM
same,"Distance resulting from the activity, First 30 min",[1]; [2],340368
same,"Distance resulting from the activity, Last 30 min",[1]; [2],318973
same,"Distance resulting from the activity, First 30 min",[1]; [3],298763
same,"Distance resulting from the activity, Last 30 min",[1]; [3],257632
same,"Distance resulting from the activity, First 30 min",[1]; [4],270378
same,"Distance resulting from the activity, Last 30 min",[1]; [4],231584

# — patent US20210024498A1, “TETRAHYDROPYRROLE COMPOUND, PREPARATION METHOD THEREFOR, PHARMACEUTICAL COMPOSITION CONTAINING SAME, AND USE THEREOF” (MEDICONNS (SHANGHAI) BIOPHARMACEUTICAL CO., LTD, priority 2017, published 2021)
